Measured values reported in patent publication US8574551B2, “Compositions useful for reducing nephrotoxicity and methods of use thereof” (Verrow Pharmaceuticals, Inc., priority 2005, dated 2013).

Assays:
kidney [1] = assay: Histopathological changes in the kidney after single bolus intravenous MTX with or without captisol at different molar ratios; format: in vivo; details: normal mice, 48 hours
Experimental: A study of histopathological changes in the kidney after single bolus intravenous MTX with or without concurrent captisol at different molar ratios was performed.
MTX solutions were prepared as follows. Solution A (24 mg/ml (53 mM)) was prepared from stock solution of 25 mg/ml (Methotrexate from Bedford laboratories) in sterile PBS (total volume 6 mL). Solution B was prepared by diluting 3 ml of Solution A to 1:1.33 in PBS to obtain a working dilution of 18 mg/mL (39.6 mM), pH 7.4. Solution C was prepared by diluting 2 mL of solution A 1:2 to obtain a working dilution of 12 mg/mL (26.4 mM), pH 7.2.
MTX+Captisol solutions were prepared as follows. Solution D was made by adding 57.32 mg Captisol to an aliquot of 500 micro liter of solution A (molar ratio 1:1, neutral pH). […]
MTX and Captisol were administered to 8 groups of mice (Groups I-VIII; see Table 3) via tail vein by a single injection in a volume of 100-120 μL. […] Clinical symptoms, body weights were recorded. […]
Semi quantitative estimates of total kidney damage in mice treated with MTX 80 mg/kg, 120 mg/kg, and a combination of MTX+Captisol at MTX to Captisol molar ratio of 1:1 and 1:0.5, are shown in FIG. 4. […] Hematoxylin and eosin sections of paraffin embedded kidney were analyzed microscopically for extent of renal damage. Data is expressed as mean±SEM. […]

kidney [2] = assay: Captisol-MTX time studies, kidney histopathology at 24 hrs, 48 hrs, 1 week; format: in vivo, mice
Experimental: For light microscopic investigation, kidneys were fixed in 10% buffered formalin and processed routinely for paraffin embedding. Tissue sections of 5 micron meter were stained with hematoxylin and eosine and examined under a Nikon coolpix light microscope, photography was done with a Nikon Coolpix camera. The severity of total kidney damage was evaluated by a semiquantitative measurement of damage as described below. Each tissue section of the kidney was assessed for degeneration of glomerular structure, glomerular crowding and congestion, dilation of bowman space, degeneration of proximal and distal tubules, and dilation of renal tubules, vascular congestion, and inflammatory cell infiltration. For glomerular atrophy, glomeruli that contained more than 20 nuclei were scored “0”, and those containing less than 10 nuclei were scored “4.” Intermediate stages were 1, 2 and 3. Other criterion was scored on a 0-3 scale: 0=none; 1=mild; 2=moderate; and 3=severe. The microscopic score of each tissue was calculated as the sum of the scores given to each criterion and at least 100 nephrons (glomeruli plus surrounding tubules) were analyzed per section. See, e.g., Bhat et al., PNAS (2003) 100(7); Sener et al., Cell Biol Toxicol (2006) 22:[…].

kidney [3] = assay: Renal pathology in EAE mice after MTX or MTX+Captisol; format: in vivo, C57BL6 mice; details: MTX 40 mg/kg single intravenous bolus, no Captisol
Experimental: Injection volume were between 100-120 μl. […] Leukovorin, the active metabolite of folic acid, is typically given with methotrexate in anti-cancer chemotherapy to help protect normal cells. Mice were scored daily for disease severity and then sacrificed on day 10 of disease. Brain, kidney and spleen were formalin fixed. […] For light microscopic investigation, kidneys were fixed in 10% buffered formalin and processed routinely for paraffin embedding. Tissue sections of 5 micron meter were stained with hematoxylin and eosine and examined under Nikon coolpix light microscope. The severity of total kidney damage was evaluated by a semiquantitative measurement of damage as described. Each tissue section of the kidney was assessed for degeneration of glomerular structure, glomerular crowding and congestion, dilation of bowman space, degeneration of proximal and distal tubules, and dilation of renal tubules, vascular congestion, and inflammatory cell infiltration. For glomerular atrophy, glomeruli that contained more than 20 nuclei were scored “0”, and those containing less than 10 nuclei were scored “4.” Intermediate stages were 1, 2 and 3. Other criterion was scored on a 0-3 scale: 0=none; 1=mild; 2=moderate; 3=severe. […]

kidney [4] = assay: Methotrexate induced nephrotoxicity model in mice, HPβCD; format: in vivo, C57BL/6 mice; details: normal mice; MTX 80 mg/kg single IV injection alone; 24 hrs
Experimental: To determine the protective effect of other cyclodextrin molecules, 2-hydroxypropyl β-cyclodextrin (HPβCD) was evaluated. Female C57BL/6 mice were injected intravenously with a single dose of methotrexate 80 mg/kg, IV, or methotrexate+HPβCD, IV, at methotrexate to HPβCD molar ratios of 1:1 and 1:0.5. The animals were sacrificed after 24 hrs. The development of glomerular and tubulointerstitial injury after methotrexate and protection by methotrexate+HPβCD was evaluated by means of assessment of renal histology by light microscopy. Leukovorin was given 4 hrs and after 18 hrs. Urine was not alkalinized.
Paraffin sections of […] were cut and stained with H&E and periodic acid Schiff (PAS). They were examined by light microscopy and scored in a blinded fashion. Five arbitratary fields at 40× magnification in each sections was assessed for the parameters, and scored according to the criteria, set forth in Example 7.

[5] = MTX-captisol solubility: rate of precipitation of MTX at pH 5.0 in presence and absence of captisol; format: physicochemical; details: for Amount of MTX in solution 1:25 dilution: diluted sample, pH 5.0, MTX added 0.91 mg/ml; for conc. of MTX (molarity of mtx): pH 5.0, Concentration of MTX added 0.002M
Experimental: Solubility studies were performed to determine whether Captisol could prevent the precipitation of MTX over a time period greater than transit time of MTX through the kidney (i.e., less than 2 minutes). Each solution was acidified with HCl, centrifuged and aliquots of the supernatant removed as a function of time, and the concentration of MTX in solution was measured spectrophometrically.

## CN(Cc1cnc2nc(N)nc(N)c2n1)c1ccc(C(=O)N[C@@H](CCC(=O)O)C(=O)O)cc1 [MTX, N-[4-[[(2,4-diamino-6pteridinyl)methyl]methylamino]benzoyl]-L-glutamicacid]
Kidney [1]; MTX 80 mg/kg iv bolus alone
  kidney histopathology (H&E): dilation of tubules, degenerative changes in the tubules, hypercellularity in the glomerulus and atypical collection of interstitial cells and convulated tubules
Kidney [1]; MTX 120 mg/kg IV alone
  kidney histopathology (H&E): glomerular atrophy, degeneration of basement membrane on bowman capsule, degenerative changes in the tubules, hypercellularity in the glomerulus and infiltration of mononuclear cells
Kidney [2]; MTX 160 mg/kg alone, 24 hours post injection
  kidney histopathology (H&E): degeneration of glomerular structure and dilation of Bowman's space, degeneration of proximal and distal tubules and inflammatory cell infiltration
Kidney [2]; MTX 160 mg/kg i.v. alone, 48 hours post injection
  kidney histopathology (H&E): degeneration of glomerular structure, dilation of Bowman's space, dilation of proximal and distal tubules, degeneration of proximal and distal tubules and inflammatory cell infiltration
Kidney [2]; MTX 160 mg/kg single i.v. bolus alone, 1 week
  kidney histopathology (H&E): degeneration of proximal and distal tubules with occasional glomerular atrophy or crowding
Kidney [2]; normal mice, MTX 160 mg/kg single iv bolus, 24 and 48 hours
  kidney tissue histopathological changes (FIG. 5): extensive histopathological changes
Kidney [3]
  kidney sections, morphological changes: dilation of renal tubules and degeneration of proximal tubules
Kidney [4]
  renal histology: significant histopathological changes in the kidney
[5]; 5 min after adding acid
  Amount of MTX in solution 1:25 dilution: 3.449 µg/mL
  conc. of MTX (molarity of mtx): 189.7 µM
[5]; 10 min after adding acid
  Amount of MTX in solution 1:25 dilution: 2.509 µg/mL
  conc. of MTX (molarity of mtx): 138 µM
[5]; 15 min after adding acid
  Amount of MTX in solution 1:25 dilution: 3.177 µg/mL
  conc. of MTX (molarity of mtx): 174.7 µM
[5]; 20 min after adding acid
  Amount of MTX in solution 1:25 dilution: 3.844 µg/mL
  conc. of MTX (molarity of mtx): 211.4 µM
[5]; 30 min after adding acid
  Amount of MTX in solution 1:25 dilution: 3.807 µg/mL
  conc. of MTX (molarity of mtx): 209.4 µM
[5]; 40 min after adding acid
  Amount of MTX in solution 1:25 dilution: 3.3 µg/mL
  conc. of MTX (molarity of mtx): 181.5 µM
[5]; 50 min after adding acid
  Amount of MTX in solution 1:25 dilution: 3.412 µg/mL
  conc. of MTX (molarity of mtx): 187.6 µM
[5]; 60 min after adding acid
  Amount of MTX in solution 1:25 dilution: 3.906 µg/mL
  conc. of MTX (molarity of mtx): 214.8 µM
